Reference: patent publication US10351575B2, “Bicyclic urea, thiourea, guanidine and cyanoguanidine compounds useful for the treatment of pain” (Array BioPharma Inc., priority 2012, dated 2019)

What follows are molecules tested against His-tagged recombinant human TrkA (Homo sapiens (Human), UniProt P04629) (assay: TrkA LanthaScreen Eu Kinase Binding Assay). Conditions: averaged IC50; TR-FRET binding, 60 min, 22° C.; read-out: TrkA Enzyme IC50.
His-tagged recombinant human TrkA, sequence (P04629 440-796): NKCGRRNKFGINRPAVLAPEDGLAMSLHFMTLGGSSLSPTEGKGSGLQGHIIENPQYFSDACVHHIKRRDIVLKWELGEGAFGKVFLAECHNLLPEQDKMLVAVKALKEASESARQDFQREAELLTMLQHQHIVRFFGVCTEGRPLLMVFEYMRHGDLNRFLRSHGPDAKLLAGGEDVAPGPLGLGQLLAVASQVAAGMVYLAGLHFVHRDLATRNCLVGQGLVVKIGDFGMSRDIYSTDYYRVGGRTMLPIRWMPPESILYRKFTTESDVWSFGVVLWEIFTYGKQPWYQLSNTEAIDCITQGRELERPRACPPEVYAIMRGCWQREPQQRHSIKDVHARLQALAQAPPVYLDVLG
Procedure: TrkA binding activity was determined in a TrkA LanthaScreen™ Eu Kinase Binding Assay. 5 nM His-tagged recombinant human TrkA (6HIS tagged cytoplasmic domain from Invitrogen, Catalog No. PV3144) was incubated with 4 nM Alexa-Fluor® Tracer 236 (Invitrogen Cat. No. PV5592), 2 nM biotinylated anti-His (Invitrogen Cat. No. PV6090), and 2 nM europium-labeled Streptavidin (Invitrogen Cat. No. PV5899), in buffer (25 mM MOPS, pH 7.5, 5 mM MgCl2, 0.005% Triton X-100). Three fold serial dilutions of compounds of the invention in DMSO were added to a final percentage of 2% DMSO. After 60-minute incubation at 22° C., the reaction was measured using the EnVision mutlimode plate reader (PerkinElmer) via TR-FRET dual wavelength detection at […]. The percent of control was calculated using a ratiometric emission factor. The IC50 values were determined by fitting a four parameter model to the percent of control data.
CNC(=O)c1nn(-c2ccccc2)c(NC(=O)N[C@@H]2c3cc(Cl)ccc3C(C)(C)C[C@H]2O)c1C (relative stereo) [Example 125, 5-(3-(trans-7-chloro-2-hydroxy-4,4-dimethyl-1,2,3,4-tetrahydronaphthalen-1-yl)ureido)-N,4-dimethyl-1-phenyl-1H-pyrazole-3-carboxamide] was tested, and the IC50 was less than 100 nM.
Cc1nn(-c2ccccc2)c(NC(=O)N[C@@H]2c3ccccc3CCC[C@H]2O)c1C (relative stereo) [Example 126, 1-(3,4-dimethyl-1-phenyl-1H-pyrazol-5-yl)-3-(trans-6-hydroxy-6,7,8,9-tetrahydro-5H-benzo[7]annulen-5-yl)urea] gave an IC50 of 100 to 1000 nM.
For Cc1ncc(-c2nn(-c3ccccc3)c(NC(=O)N[C@@H]3c4ccccc4CCC[C@H]3O)c2C)cn1 (relative stereo) [Example 127, 1-(trans-6-hydroxy-6,7,8,9-tetrahydro-5H-benzo[7]annulen-5-yl)-3-(4-methyl-3-(2-methylpyrimidin-5-yl)-1-phenyl-1H-pyrazol-5-yl)urea], the IC50 was 100 to 1000 nM.
For COc1ncc(-c2nn(-c3ccccc3)c(NC(=O)N[C@@H]3c4ccccc4CCC[C@H]3O)c2C)cn1 (relative stereo) [Example 128, 1-(trans-6-hydroxy-6,7,8,9-tetrahydro-5H-benzo[7]annulen-5-yl)-3-(3-(2-methoxypyrimidin-5-yl)-4-methyl-1-phenyl-1H-pyrazol-5-yl)urea], the IC50 was 100 to 1000 nM.
Work on Cc1c(-c2cnn(C)c2)nn(-c2ccccc2)c1NC(=O)N[C@@H]1c2ccccc2C2(CCC2)[C@H]1O (relative stereo) [Example 142, 1-(1′,4-dimethyl-1-phenyl-1H,1′H-[3,4′-bipyrazol]-5-yl)-3-(trans-2′-hydroxy-2′,3′-dihydrospiro[cyclobutane-1,1′-inden]-3′-yl)urea] yielded an IC50 of less than 100 nM.
In the case of COc1nn(-c2ccccc2)c(NC(=O)N[C@@H]2c3ccccc3C3(CC3)C[C@H]2O)c1C (relative stereo) [Example 152, 1-(trans-3′-hydroxy-3′,4′-dihydro-2′H-spiro[cyclopropane-1,1′-naphthalen]-4′-yl)-3-(3-methoxy-4-methyl-1-phenyl-1H-pyrazol-5-yl)urea], the IC50 is reported as less than 100 nM.
COc1nn(-c2ccccc2)c(NC(=O)N[C@@H]2c3ccccc3OC3(CCC3)[C@H]2O)c1C (relative stereo) [Example 159, 1-(trans-3-hydroxyspiro[chroman-2,1′-cyclobutan]-4-yl)-3-(3-methoxy-4-methyl-1-phenyl-1H-pyrazol-5-yl)urea] gave an IC50 of less than 100 nM.
Cc1c(-c2cnn(C)c2)nn(-c2ccccc2)c1NC(=O)N[C@@H]1c2ccccc2OC2(CCC2)[C@H]1O (relative stereo) [Example 160, 1-(1′,4-dimethyl-1-phenyl-1H,1′H-[3,4′-bipyrazol]-5-yl)-3-(trans-3-hydroxyspiro[chroman-2,1′-cyclobutan]-4-yl)urea] was tested, and the IC50 was less than 100 nM.
Cc1c(-c2cnn(C)c2)nn(-c2ccccc2)c1NC(=O)N[C@H]1c2ccccc2C2(CC2)[C@@H]1O (stereo in doubt) [Example 138, 1-(1′,4-dimethyl-1-phenyl-1H,1′H-[3,4′-bipyrazol]-5-yl)-3-((2′S,3′S)-2′-hydroxy-2′,3′-dihydrospiro[cyclopropane-1,1′-inden]-3′-yl)urea] was tested, and the IC50 was 100 to 1000 nM.
Work on Cc1c(-c2cnn(C)c2)nn(-c2ccccc2)c1NC(=O)NC1CCCc2ccccc21 (stereo not shown) [Example 1, 1-(1′,4-dimethyl-1-phenyl-1H,1′H-3,4′-bipyrazol-5-yl)-3-(1,2,3,4-tetrahydronaphthalen-1-yl)urea] yielded an IC50 of less than 100 nM.
For O=C(Nc1c2c(nn1-c1ccccc1)CCC2)N[C@H]1CCCc2ccccc21 [Example 3, (S)-1-(2-phenyl-2,4,5,6-tetrahydrocyclopenta[c]pyrazol-3-yl)-3-(1,2,3,4-tetrahydronaphthalen-1-yl)urea], the IC50 was less than 100 nM.
In the case of Cc1c(-c2cnn(C)c2)nn(-c2ccccc2)c1NC(=O)N[C@@H]1CCCc2ccccc21 [Example 4, (R)-1-(1′,4-dimethyl-1-phenyl-1H,1′H-3,4′-bipyrazol-5-yl)-3-(1,2,3,4-tetrahydronaphthalen-1-yl)urea], the IC50 is reported as 100 to 1000 nM.
Work on COc1ccc2c(c1)CCCC2NC(=O)Nc1c(C)c(-c2cnn(C)c2)nn1-c1ccccc1 (stereo not shown) [Example 5, 1-(1′,4-dimethyl-1-phenyl-1H,1′H-3,4′-bipyrazol-5-yl)-3-(6-methoxy-1,2,3,4-tetrahydronaphthalen-1-yl)urea] yielded an IC50 of 100 to 1000 nM.
Molecule Cc1c(-c2cnn(C)c2)nn(-c2ccccc2)c1NC(=O)NC1CCCCc2ccccc21 (stereo not shown) [Example 6, 1-(1′,4-dimethyl-1-phenyl-1H,1′H-3,4′-bipyrazol-5-yl)-3-(6,7,8,9-tetrahydro-5H-benzo[7]annulen-5-yl)urea] has an IC50 of less than 100 nM.
In the case of Cc1c(-c2cnn(C)c2)nn(-c2ccccc2)c1NC(=O)NC1CCOc2ccccc21 (stereo not shown) [Example 7, 1-(chroman-4-yl)-3-(1′,4-dimethyl-1-phenyl-1H,1′H-3,4′-bipyrazol-5-yl)urea], the IC50 is reported as 100 to 1000 nM.
Cc1c(-c2cnn(C)c2)nn(-c2ccccc2)c1NC(=O)NC1COCc2ccccc21 (stereo not shown) [Example 8, 1-(1′,4-dimethyl-1-phenyl-1H,1′H-3,4′-bipyrazol-5-yl)-3-(isochroman-4-yl)urea] was tested, and the IC50 was 100 to 1000 nM.
For Cc1c(-c2cnn(C)c2)nn(-c2ccccc2)c1NC(=O)NC1CC(C)(C)Oc2ccccc21 (stereo not shown) [Example 9, 1-(1′,4-dimethyl-1-phenyl-1H,1′H-3,4′-bipyrazol-5-yl)-3-(2,2-dimethylchroman-4-yl)urea], the IC50 was 100 to 1000 nM.
With Cc1c(-c2cnn(C)c2)nn(-c2ccccc2)c1NC(=O)NC1COCc2ccc(Br)cc21 (stereo not shown) [Example 10, 1-(6-bromoisochroman-4-yl)-3-(1′,4-dimethyl-1-phenyl-1H,1′H-[3,4′-bipyrazol]-5-yl)urea] the IC50 was less than 100 nM.
Cc1nn(-c2ccccc2)c(NC(=O)N[C@H]2CCCc3ccccc32)c1Br [Example 11, (S)-1-(4-bromo-3-methyl-1-phenyl-1H-pyrazol-5-yl)-3-(1,2,3,4-tetrahydronaphthalen-1-yl)urea] gave an IC50 of less than 100 nM.
With CCOc1nn(-c2ccccc2)c(NC(=O)NC2CCOc3cc(F)ccc32)c1C (stereo not shown) [Example 13, 1-(3-ethoxy-4-methyl-1-phenyl-1H-pyrazol-5-yl)-3-(7-fluorochroman-4-yl)urea] the IC50 was 100 to 1000 nM.
Molecule Cc1c(-c2cnn(C)c2)nn(-c2ccccc2)c1NC(=O)NC1CC(C)Oc2ccc(F)cc21 (stereo not shown) [Example 14, 1-(1′,4-dimethyl-1-phenyl-1H,1′H-[3,4′-bipyrazol]-5-yl)-3-(6-fluoro-2-methylchroman-4-yl)urea] has an IC50 of 100 to 1000 nM.
Work on Cc1c(-c2cnn(C)c2)nn(-c2ccccc2)c1NC(=O)NC1CCCc2ccc(Br)cc21 (stereo not shown) [Example 15, 1-(7-bromo-1,2,3,4-tetrahydronaphthalen-1-yl)-3-(1′,4-dimethyl-1-phenyl-1H,1′H-[3,4′-bipyrazol]-5-yl)urea] yielded an IC50 of less than 100 nM.
Cc1c(-c2cnn(C)c2)nn(-c2ccccc2)c1NC(=O)NC1CCC(C)(C)c2ccc(Br)cc21 (stereo not shown) [Example 16, 1-(7-bromo-4,4-dimethyl-1,2,3,4-tetrahydronaphthalen-1-yl)-3-(1′,4-dimethyl-1-phenyl-1H,1′H-[3,4′-bipyrazol]-5-yl)urea] was tested, and the IC50 was less than 100 nM.
Molecule COCCN1CCc2ccccc2C(NC(=O)Nc2c(C)c(-c3cnn(C)c3)nn2-c2ccccc2)C1 (stereo not shown) [Example 17, 1-(1′,4-dimethyl-1-phenyl-1H,1′H-3,4′-bipyrazol-5-yl)-3-(3-(2-methoxyethyl)-2,3,4,5-tetrahydro-1H-benzo[d]azepin-1-yl)urea] has an IC50 of 100 to 1000 nM.
With Cc1c(-c2cnn(C)c2)nn(-c2ccccc2)c1NC(=O)NC1CN(CC(F)(F)F)CCc2ccccc21 (stereo not shown) [Example 18, 1-(1′,4-dimethyl-1-phenyl-1H,1′H-3,4′-bipyrazol-5-yl)-3-(3-(2,2,2-trifluoroethyl)-2,3,4,5-tetrahydro-1H-benzo[d]azepin-1-yl)urea] the IC50 was 100 to 1000 nM.
CC(=O)N1CCc2ccccc2C(NC(=O)Nc2c(C)c(-c3cnn(C)c3)nn2-c2ccccc2)C1 (stereo not shown) [Example 19, 1-(3-acetyl-2,3,4,5-tetrahydro-1H-benzo[d]azepin-1-yl)-3-(1′,4-dimethyl-1-phenyl-1H,1′H-3,4′-bipyrazol-5-yl)urea] gave an IC50 of 100 to 1000 nM.
In the case of CCC(=O)N1CCc2ccccc2C(NC(=O)Nc2c(C)c(-c3cnn(C)c3)nn2-c2ccccc2)C1 (stereo not shown) [Example 20, 1-(1′,4-dimethyl-1-phenyl-1H,1′H-3,4′-bipyrazol-5-yl)-3-(3-propionyl-2,3,4,5-tetrahydro-1H-benzo[d]azepin-1-yl)urea], the IC50 is reported as 100 to 1000 nM.
CCCN1CCc2ccccc2C(NC(=O)Nc2c(C)c(-c3cnn(C)c3)nn2-c2ccccc2)C1 (stereo not shown) [Example 21] showed an IC50 of 100 to 1000 nM.
For CCN1Cc2ccccc2C(NC(=O)Nc2c3c(nn2-c2ccccc2)CCC3)C1 (stereo not shown) [Example 22, 1-(2-ethyl-1,2,3,4-tetrahydroisoquinolin-4-yl)-3-(2-phenyl-2,4,5,6-tetrahydrocyclopenta[c]pyrazol-3-yl)urea], the IC50 was 100 to 1000 nM.
Work on COCCN1Cc2ccccc2C(NC(=O)Nc2c3c(nn2-c2ccccc2)CCC3)C1 (stereo not shown) [Example 23, 1-(2-(2-methoxyethyl)-1,2,3,4-tetrahydroisoquinolin-4-yl)-3-(2-phenyl-2,4,5,6-tetrahydrocyclopenta[c]pyrazol-3-yl)urea] yielded an IC50 of 100 to 1000 nM.
CC(=O)N1Cc2ccccc2C(NC(=O)Nc2c3c(nn2-c2ccccc2)CCC3)C1 (stereo not shown) [Example 24, 1-(2-acetyl-1,2,3,4-tetrahydroisoquinolin-4-yl)-3-(2-phenyl-2,4,5,6-tetrahydrocyclopenta[c]pyrazol-3-yl)urea] showed an IC50 of 100 to 1000 nM.
